These results are taken from patent US11826352B2, “Edaravone suspension for oral administration” (MITSUBISHI TANABE PHARMA CORPORATION, priority 2018, dated 2023).

A short description of data set [1]: Transmission scattering light intensity test. To be noted: 40 mL 0.1% (w/v) additive solution + 840 mg edaravone particles; for Dispersion State of Edaravone: stirred 30 minutes or more; for Transmission Scattering light Intensity ΔT %: TURBISCAN Tower, 25° C., height 39-40 mm, after 10 minutes. Type of data set: physicochemical. As for the experimental part:
Further, here, the transmission scattering light intensity means a value obtained after 10 minutes after starting a measurement of a transmission scattering light intensity, the measurement being performed by filling 20 mL of the above liquid in a cylindrical sample bottle (inner diameter: 25 mm×outer diameter: 27.5 mm×height: 72 mm) and by measuring the transmission scattering light intensity at a height of 39-40 mm of the sample bottle using a TURBISCAN Tower (manufactured Formulaction) (25° C.).
0.1% (w/v) aqueous solutions of drug product additives described in the following table that are substances having a function capable of dispersing solid particles in a liquid were prepared at a room temperature.
40 mL of each of the aqueous solutions of the additives was added to 840 mg of edaravone particles (edaravone powder, D50: 37 μm, D90: 143 μm) and the mixture was stirred using a stirrer for 30 minutes or more, and a dispersed state of the edaravone particles was confirmed.
Further, 20 mL of the dispersion liquid obtained above was filled into a sample bottle (inner diameter: 25 mm×outer diameter: 27.5 mm×height: 72 mm), and measurement of a transmission scattering light intensity ΔT % at a height of 39-40 mm of the sample bottle was started using a TURBISCAN Tower (manufactured by Formulaction) (with a temperature set to 25° C.), and a value obtained after 10 minutes after the start of the measurement was defined as the transmission scattering light intensity ΔT % for each additive. The transmission scattering light intensities ΔT % of the additives and the dispersion state of the edaravone particles in the additive solutions are shown in the following table.

Another data set is described as follows: Contact angle test. Type of data set: physicochemical. To be noted: edaravone saturated aqueous solution with 0.1% (w/v) additive on edaravone tablet; 1 μL, after 3.1 seconds. How it is done:
Here, “80 degrees or less” means a range of 0-80 degrees. […] Here, the edaravone tablet refers to an edaravone tablet obtained by compression-molding 120 mg of edaravone (D50: 37 D90: 143 μm) in a flat punch having a diameter of 8 mm at a tableting pressure of 800 kg, and measurement of the contact angle refers to a case where the contact angle is measured using a contact angle measuring device (CAX-150 manufactured by Kyowa Interface Science) under the following conditions. • Syringe used: glass, 1 mL • Needle: 23 gauge • Liquid volume: 1 μL • Measurement time: after 3.1 seconds
120 mg of an edaravone drug substance (D50: 37 μm, D90: 143 μm) was compression-molded using a single-punch tableting machine (Compaction Analyzer) (punch: flat punch having a diameter of 8 mm; tableting pressure: 800 kgf), and an edaravone tablet for contact angle measurement was obtained.
Edaravone saturated aqueous solutions in which drug product additives described in the following table that are substances having a function capable of dispersing solid particles in a liquid were dissolved 0.1% (w/v) therein were prepared at a room temperature, and contact angles with respect to the edaravone tablet prepared above were measured using a contact angle measurement device (Kyowa Interface Science, Inc., CAX-150). […]

As to `OC[C@@H](O)[C@@H](O)[C@H](O)[C@@H](O)CO` [D-sorbitol], in data set [1], the “Dispersion State of Edaravone” value is given as “not dispersed” and the “Transmission Scattering light Intensity ΔT %” value is 0.000%. Moreover, the “Contact Angle” value in the data set “Contact angle test” is on record as 83.3 degrees.

Take Polysorbate 80: in data set [1], the “Dispersion State of Edaravone” value is “dispersed” and the “Transmission Scattering light Intensity ΔT %” value turned out to be 6.151%. In “Contact angle test”, the “Contact Angle” value worked out at 53.1 degrees.
